Data reported in patent publication US6472348B1, “Pyridone derivatives and herbicides” (Kumiai Chemical Industry Co., Ltd., priority 1996, dated 2002).

Columns and labels:
Type in all cases: in vivo
barnyardgrass (Ec) [1] = assay: Test Example 1: herbicidal effects by paddy field soil treatment; conditions: 100 g of the active ingredient per 10 ares, 21st day after the application, index 0-5 of Table 47;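 also: grade of growth control; 5 = at least 90%; 4 = 70 to 90%; 3 = 50 to 70%; 2 = 30 to 50%; 1 = 10 to 30%; 0 = under 10%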
Summary of the method: (§1)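 Herbicidal effect was scored against a graded standard 21 days after treatment. Seeds were sown in puddled, leveled paddy soil flooded to 3 cm depth, and the active ingredient was applied at 100 g per 10 ares before greenhouse culture.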

monochoria (Mo) = assay: as above; conditions: 100 g of the active ingredient per 10 ares, 21st day after the application, index 0-5 of Table 47;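 also: grade of growth control; 5 = at least 90%; 4 = 70 to 90%; 3 = 50 to 70%; 2 = 30 to 50%; 1 = 10 to 30%; 0 = under 10%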
Summary of the method: as §1

bulrush (Sc) = assay: as above; conditions: 100 g of the active ingredient per 10 ares, 21st day after the application, index 0-5 of Table 47;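 also: grade of growth control; 5 = at least 90%; 4 = 70 to 90%; 3 = 50 to 70%; 2 = 30 to 50%; 1 = 10 to 30%; 0 = under 10%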
Summary of the method: as §1

corn (Ze) = assay: Test Example 7: crop plant selectivity by upland field soil treatment (corn), phytotoxicity; set-up: scale not given here; conditions: dose 6.3 g ai/10a, 21st day after application
Description: (§2) (Test on Crop Plant Selectivity by Upland Field Soil Treatment)
(§3) In a plastic pot (surface area: 600 cm^2) filled with sand, corn (Ze), green foxtail (Se), pale smartweed (Po), slender amaranth (Am), common lambsquarters (Ch) and China jute (Ab) were sown and covered with soil. […] The plants were then cultured in a green house, and the evaluation of the herbicidal effects and phytotoxicity was conducted on the 21st day after the application in accordance with the standards as identified in Table 47.

pale smartweed (Po) [2] = assay: Test Example 5: crop plant selectivity by upland field soil treatment (wheat), herbicidal effects; set-up: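 grade of growth control; 5 = at least 90%; 4 = 70 to 90%; 3 = 50 to 70%; 2 = 30 to 50%; 1 = 10 to 30%; 0 = under 10%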; conditions: dose 6.3 g ai/10a, 21st day after application
Description: as §2
(§4) In a plastic pot (surface area: 600 cm^2) filled with sand, wheat (Tr), Diaitaria ciliaris (Di), green foxtail (Se), pale smartweed (Po), slender amaranth (Am), common lambsquarters (Ch) and China jute (Ab) were sown and covered with soil. […] The plants were then cultured in a green house, and the evaluation of the herbicidal effects and phytotoxicity was conducted on the 21st day after the application in accordance with the standards as identified in Table 47. Symbol—represents “not tested”.

[3] = test system: common lambsquarters (Ch); assay: as above; set-up: scale not given here; conditions: dose 6.3 g ai/10a, 21st day after application
Description: as §2, §4

China jute (Ab) [4] = assay: as above; set-up: scale not given here; conditions: dose 6.3 g ai/10a, 21st day after application
Description: as §2, §4

green foxtail (Se) [5] = assay: as above; set-up: scale not given here; conditions: dose 6.3 g ai/10a, 21st day after application
Description: as §2, §4

slender amaranth (Am) [6] = assay: as above; set-up: scale not given here; conditions: dose 6.3 g ai/10a, 21st day after application
Description: as §2, §4

pale smartweed (Po) [7] = assay: Test Example 7: crop plant selectivity by upland field soil treatment (corn), herbicidal effects; set-up: scale not given here; conditions: dose 6.3 g ai/10a, 21st day after application
Description: as §2, §3

[8] = test system: common lambsquarters (Ch); assay: as above; set-up: scale not given here; conditions: dose 6.3 g ai/10a, 21st day after application
Description: as §2, §3

China jute (Ab) [9] = assay: as above; set-up: scale not given here; conditions: dose 6.3 g ai/10a, 21st day after application
Description: as §2, §3

green foxtail (Se) [10] = assay: as above; set-up: scale not given here; conditions: dose 6.3 g ai/10a, 21st day after application
Description: as §2, §3

slender amaranth (Am) [11] = assay: as above; set-up: scale not given here; conditions: dose 6.3 g ai/10a, 21st day after application
Description: as §2, §3

wheat (Tr) = assay: Test Example 5: crop plant selectivity by upland field soil treatment (wheat), phytotoxicity; set-up: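 grade of crop injury; 5 = at least 90%; 4 = 70 to 90%; 3 = 50 to 70%; 2 = 30 to 50%; 1 = 10 to 30%; 0 = under 10%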; conditions: dose 6.3 g ai/10a, 21st day after application
Description: as §2, §4

pale smartweed (Po) [12] = assay: Test Example 6: crop plant selectivity by upland field soil treatment (soybean), herbicidal effects; set-up: scale not given here; conditions: dose 6.3 g ai/10a, 21st day after application
Description: as §2
(§5) In a plastic pot (surface area: 600 cm^2) filled with sand, soybean (Gl), Diaitaria ciliaris (Di), green foxtail (Se), Johnsongrass (So), pale smartweed (Po), slender amaranth (Am), common lambsquarters (Ch) and China jute (Ab) were sown and covered with soil. […] The plants were then cultured in a green house, and the evaluation of the herbicidal effects and phytotoxicity was conducted on the 21st day after the application in accordance with the standards as identified in Table 47. Symbol—represents “not tested”.

[13] = test system: common lambsquarters (Ch); assay: as above; set-up: scale not given here; conditions: dose 6.3 g ai/10a, 21st day after application
Description: as §2, §5

China jute (Ab) [14] = assay: as above; set-up: scale not given here; conditions: dose 6.3 g ai/10a, 21st day after application
Description: as §2, §5

green foxtail (Se) [15] = assay: as above; set-up: scale not given here; conditions: dose 6.3 g ai/10a, 21st day after application
Description: as §2, §5

slender amaranth (Am) [16] = assay: as above; set-up: scale not given here; conditions: dose 6.3 g ai/10a, 21st day after application
Description: as §2, §5

cotton (Go) = assay: Test Example 4: crop plant selectivity by upland field soil treatment (cotton), phytotoxicity; set-up: scale not given here; conditions: dose 6.3 g ai/10 a, evaluated 21st day after application
Description: as §2
(§6) In a plastic pot (surface area: 600 cm^2) filled with sand, cotton (Go), Diaitaria ciliaris (Di), green foxtail (Se), pale smartweed (Po), slender amaranth (Am), common lambsquarters (Ch) and China jute (Ab) were sown and covered with soil. […] The plants were then cultured in a green house, and the evaluation of the herbicidal effects and phytotoxicity was conducted on the 21st day after the application in accordance with the standards as identified in Table 47. Symbol—represents “not tested”.

barnyardgrass (Ec) [17] = assay: Test Example 3: herbicidal effects by upland field foliage treatment; set-up: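 grade of growth control; 5 = at least 90%; 4 = 70 to 90%; 3 = 50 to 70%; 2 = 30 to 50%; 1 = 10 to 30%; 0 = under 10%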; conditions: 100 g of the active ingredient per 10 ares, evaluated on the 14th day after treatment
Summary of the method: (§7)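 Readout: visual herbicidal rating per defined standards, 14th day after treatment. Plants sown in sand (pot area 120 cm^2), soil-covered, greenhouse-cultured for 2 weeks prior to foliage application, then greenhouse-grown until scoring.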

pale smartweed (Po) [18] = assay: as above; set-up: scale not given here; conditions: 100 g of the active ingredient per 10 ares, evaluated on the 14th day after treatment
Summary of the method: as §7

[19] = test system: common lambsquarters (Ch); assay: as above; set-up: scale not given here; conditions: 100 g of the active ingredient per 10 ares, evaluated on the 14th day after treatment
Summary of the method: as §7

rice flatsedge (Ci) [20] = assay: as above; set-up: scale not given here; conditions: 100 g of the active ingredient per 10 ares, evaluated on the 14th day after treatment
Summary of the method: as §7

Diaitaria ciliaris (Di) = assay: as above; set-up: scale not given here; conditions: 100 g of the active ingredient per 10 ares, evaluated on the 14th day after treatment
Summary of the method: as §7

slender amaranth (Am) [21] = assay: as above; set-up: scale not given here; conditions: 100 g of the active ingredient per 10 ares, evaluated on the 14th day after treatment
Summary of the method: as §7

pale smartweed (Po) [22] = assay: Test Example 4: crop plant selectivity by upland field soil treatment (cotton), herbicidal effects; set-up: scale not given here; conditions: dose 6.3 g ai/10 a, evaluated 21st day after application
Description: as §2, §6

[23] = test system: common lambsquarters (Ch); assay: as above; set-up: scale not given here; conditions: dose 6.3 g ai/10 a, evaluated 21st day after application
Description: as §2, §6

China jute (Ab) [24] = assay: as above; set-up: scale not given here; conditions: dose 6.3 g ai/10 a, evaluated 21st day after application
Description: as §2, §6

green foxtail (Se) [25] = assay: as above; set-up: scale not given here; conditions: dose 6.3 g ai/10 a, evaluated 21st day after application
Description: as §2, §6

slender amaranth (Am) [26] = assay: as above; set-up: scale not given here; conditions: dose 6.3 g ai/10 a, evaluated 21st day after application
Description: as §2, §6

barnyardgrass (Ec) [27] = assay: Test Example 2: herbicidal effects by upland field soil treatment; conditions: 100 g of the active ingredient per 10 ares, 21st day after the application, index 0-5 of Table 47;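 also: grade of growth control; 5 = at least 90%; 4 = 70 to 90%; 3 = 50 to 70%; 2 = 30 to 50%; 1 = 10 to 30%; 0 = under 10%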
From the text: (§8) (Test on Herbicidal Effects by Upland Field Soil Treatment)

pale smartweed (Po) [28] = assay: as above; conditions: 100 g of the active ingredient per 10 ares, 21st day after the application, index 0-5 of Table 47
From the text: as §8

Digitaria ciliaris (Di) = assay: as above; conditions: 100 g of the active ingredient per 10 ares, 21st day after the application, index 0-5 of Table 47
From the text: as §8

[29] = test system: common lambsquarters (Ch); assay: as above; conditions: 100 g of the active ingredient per 10 ares, 21st day after the application, index 0-5 of Table 47
From the text: as §8

rice flatsedge (Ci) [30] = assay: as above; conditions: 100 g of the active ingredient per 10 ares, 21st day after the application, index 0-5 of Table 47
From the text: as §8

slender amaranth (Am) [31] = assay: as above; conditions: 100 g of the active ingredient per 10 ares, 21st day after the application, index 0-5 of Table 47
From the text: as §8

soybean (Gl) = assay: Test Example 6: crop plant selectivity by upland field soil treatment (soybean), phytotoxicity; set-up: scale not given here; conditions: dose 6.3 g ai/10a, 21st day after application
Description: as §2, §5

Structure (SMILES): Cn1c(C(F)(F)F)ccc(-c2cc(Br)c(Cl)cc2F)c1=O [1-138]
- Herbicidal effects Ec (barnyardgrass (Ec) [1]): 5
- Herbicidal effects Mo (monochoria (Mo)): 5
- Herbicidal effects Sc (bulrush (Sc)): 5
- Phytotoxicity Ze (corn (Ze)): 2
- Herbicidal effects Po (pale smartweed (Po) [2]): 5
- Herbicidal effects Ch [3]: 5
- Herbicidal effects Ab (China jute (Ab) [4]): 4
- Herbicidal effects Se (green foxtail (Se) [5]): 5
- Herbicidal effects Am (slender amaranth (Am) [6]): 5
- Herbicidal effects Po (pale smartweed (Po) [7]): 5
- Herbicidal effects Ch [8]: 5
- Herbicidal effects Ab (China jute (Ab) [9]): 4
- Herbicidal effects Se (green foxtail (Se) [10]): 5
- Herbicidal effects Am (slender amaranth (Am) [11]): 5
- Phytotoxicity Tr (wheat (Tr)): 1
- Herbicidal effects Po (pale smartweed (Po) [12]): 5
- Herbicidal effects Ch [13]: 5
- Herbicidal effects Ab (China jute (Ab) [14]): 4
- Herbicidal effects Se (green foxtail (Se) [15]): 5
- Herbicidal effects Am (slender amaranth (Am) [16]): 5
- Phytotoxicity Go (cotton (Go)): 1
- Herbicidal effects Ec (barnyardgrass (Ec) [17]): 5
- Herbicidal effects Po (pale smartweed (Po) [18]): 5
- Herbicidal effects Ch [19]: 5
- Herbicidal effects Ci (rice flatsedge (Ci) [20]): 5
- Herbicidal effects Di (Diaitaria ciliaris (Di)): 5
- Herbicidal effects Am (slender amaranth (Am) [21]): 5
- Herbicidal effects Po (pale smartweed (Po) [22]): 5
- Herbicidal effects Ch [23]: 5
- Herbicidal effects Ab (China jute (Ab) [24]): 4
- Herbicidal effects Se (green foxtail (Se) [25]): 5
- Herbicidal effects Am (slender amaranth (Am) [26]): 5
- Herbicidal effects Ec (barnyardgrass (Ec) [27]): 5
- Herbicidal effects Po (pale smartweed (Po) [28]): 5
- Herbicidal effects Di (Digitaria ciliaris (Di)): 5
- Herbicidal effects Ch [29]: 5
- Herbicidal effects Ci (rice flatsedge (Ci) [30]): 5
- Herbicidal effects Am (slender amaranth (Am) [31]): 5
- Phytotoxicity Gl (soybean (Gl)): 2
